Results reported in patent publication US7825146B2, “Sulfonamide derivative having isoxazole ring” (Shionogi & Co., Ltd., priority 2003, dated 2010).

biological target: T1, MMP-8 (Homo sapiens, UniProt P22894); assay: Assay for inhibitory activities on MMPs (fluorogenic MOCAc peptide substrate): MMP-8; format: biochemical; conditions: catalytic domain 99Phe-262Gly
T1 construct: In regard to MMP-8, catalytic domain (^99Phe˜^262Gly) was amplified with PCR; His-tag; enterokinase digestion-site; made in house
Description: In regard to MMP-8, catalytic domain (^99Phe˜^262Gly) was amplified with PCR using commercial available Human Bone Marrow cDNA. This was cloned in Escherichia. coli expression vector pTrc99AHE inserted with His-tag sequence and enterokinase digestion-site, induced and expressed by IPTG (Isdpropyl-β-D-thiogalactopyranoside) and expressed in a insoluble fraction (Thau F. Ho, M. Walid Qoronfleh, Robert C. Wahl, Trica A. Pulvino, Karen J. Vavra, Joe Falvo, Tracey M. Banks, Patricia G. Brake and Richard B. Ciccarelli: Gene expression, purification and characterization of recombinant human neutrophil collagenase. Gene 146, (1994) 297-301, Prepared by the a improved method of this material). Isolation of MMP-8 from an insoluble fraction was carried out by dissolving in modifier (6M urea) by a usual method and purification with metal chelate chromatography. And then removing modifier (6M urea) with dialysis and refolding of the enzyme spontaneously gave activated MMP-8.
(§1) The enzymatic activity on MMPs was analyzed by the method described in “C. Graham Knight, Frances Willenbrock and Gillian Murphy: A novel coumarin-labelled peptide for sensitive continuous assays of the matrix metalloproteinases: FEBS LETT., 296, (1992), 263-266”. The substrate: MOCAc-Pro-Leu-Gly-Leu-A2Pr(DNP)-Ala-Arg-NH2 was purchased from Peptide Institute, Inc., Osaka, Japan. The measurement of the inhibitory activities (IC50) was carried out by the following four methods; • (A) Reaction with substrate, enzyme (MMPs) and inhibitor • (B) Reaction with substrate and inhibitor, without enzyme • (C) Reaction with substrate and enzyme (MMPs), without inhibitor • (D) Reaction with substrate only IC50 values were calculated by using the following formula and each fluorescence values of above four methods (A to D).
(§2) The value of inhibitory activity against MMP-2, MMP-8, MMP-9, MMP-12, and MMP-13 measured by above mentioned methods are shown in Table 36, 37, 38, 39, and 40 respectively.

T1 sequence (P22894 99-262): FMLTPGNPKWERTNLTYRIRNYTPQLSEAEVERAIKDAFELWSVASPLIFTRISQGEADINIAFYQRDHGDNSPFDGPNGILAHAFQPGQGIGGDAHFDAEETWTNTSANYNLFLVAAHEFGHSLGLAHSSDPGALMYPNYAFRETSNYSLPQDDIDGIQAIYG

Row | IC50 [µM] | SMILES
1 | 0.0023 | Cc1ccc(-c2cc(-c3ccc(S(=O)(=O)N[C@H](CC(=O)O)C(=O)O)cc3)no2)s1 [Example C-116]
2 | 0.00252 | Cc1ccc(-c2cc(-c3ccc(S(=O)(=O)N[C@@H](C(=O)O)C(C)(C)C)cc3)no2)s1 [Example C-110]
3 | 0.00111 | CCC(C)[C@H](NS(=O)(=O)c1ccc(-c2cc(-c3ccc(Cl)s3)on2)cc1)C(=O)O (stereo partly drawn) [Example C-100]
4 | 0.00463 | CC(C)C[C@@H](NS(=O)(=O)c1ccc(-c2cc(-c3ccc(Cl)s3)on2)cc1)C(=O)O [Example C-78]

biological target: T2, MMP-12 (Homo sapiens, UniProt P39900); assay: Assay for inhibitory activities on MMPs (fluorogenic MOCAc peptide substrate): MMP-12; format: biochemical; conditions: catalytic domain 100Phe-263Gly
T2 construct: In regard to MMP-12, catalytic domain(^100Phe˜^263Gly) was amplified with RT-PCR; His-tag; enterokinase digestion-site; made in house
Method: In regard to MMP-12, catalytic domain(^100Phe˜^263Gly) was amplified with RT-PCR from Human Placenta Total RNA. This was cloned in Escherichia. coli expression vector pTrc99AHE inserted with His-tag sequence and enterokinase digestion-site, induced and expressed by IPTG (Isopropyl-β-D-thiogalactopyranoside) and expressed in a insoluble fraction. Isolation of MMP-12 from an insoluble fraction was carried out by dissolving in modifier (6M urea) by a usual method and purification with metal chelate chromatography (Ni Chelateing Sepharose). And then removing modifier (6M urea) with dialysis and refolding of the enzyme spontaneously gave activated MMP-12.
as §1, §2

T2 sequence (P39900 100-263): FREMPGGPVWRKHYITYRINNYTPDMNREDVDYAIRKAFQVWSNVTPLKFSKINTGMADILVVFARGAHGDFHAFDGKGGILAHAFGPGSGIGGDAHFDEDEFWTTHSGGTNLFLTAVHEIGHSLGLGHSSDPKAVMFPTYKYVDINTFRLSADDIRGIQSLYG

Row | IC50 [µM] | SMILES
5 | 0.000432 | COc1ccc(-c2cc(-c3ccc(S(=O)(=O)N[C@@H](CC(C)C)C(=O)O)cc3)no2)cc1 [Example C-64]
6 | 0.00081 | Cc1ccc(-c2cc(-c3ccc(S(=O)(=O)N[C@@H](CC(C)C)C(=O)O)cc3)on2)cc1 [Example A-61]
7 | 0.000861 | CC(C)[C@@H](NS(=O)(=O)c1ccc(-c2cc(-c3ccc(Cl)c(F)c3)no2)cc1)C(=O)O [Example A-40]
8 | 0.000575 | CC(C)[C@@H](NS(=O)(=O)c1ccc(-c2cc(-c3ccc(Cl)c(Cl)c3)on2)cc1)C(=O)O [Example C-40]
9 | 0.000608 | CC(C)[C@H](NS(=O)(=O)c1ccc(-c2cc(-c3ccc(C(F)(F)F)cc3)no2)cc1)C(=O)O [Example A-21]
10 | 0.000904 | COc1ccc(-c2cc(-c3ccc(S(=O)(=O)N[C@H](CC(=O)O)C(=O)O)cc3)no2)cc1F [Example C-118]
11 | 0.00043 | CC(C)C[C@H](NS(=O)(=O)c1ccc(-c2cc(-c3ccc(Br)cc3)no2)cc1)C(=O)O [Example A-66]
12 | 0.000806 | CC(C)[C@@H](NS(=O)(=O)c1ccc(-c2cc(-c3ccc(Br)cc3)no2)cc1)C(=O)O [Example A-24]
13 | 0.000216 | CCCc1ccc(-c2cc(-c3ccc(S(=O)(=O)N[C@@H](CC(C)C)C(=O)O)cc3)no2)cc1 [Example C-58]
14 | 0.000834 | CC(C)[C@@H](NS(=O)(=O)c1ccc(-c2cc(-c3ccc(F)c(F)c3)on2)cc1)C(=O)O [Example C-49]
15 | 0.000209 | CC(C)[C@H](NS(=O)(=O)c1ccc(-c2cc(-c3ccc(C(F)(F)F)cc3)on2)cc1)C(=O)O [Example C-28]
16 | 0.000525 | CCC(C)[C@H](NS(=O)(=O)c1ccc(-c2cc(-c3ccc(F)c(F)c3)on2)cc1)C(=O)O (stereo partly drawn) [Example C-108]
17 | 0.000492 | CC(C)C[C@H](NS(=O)(=O)c1ccc(-c2cc(-c3ccc(Cl)cc3)no2)cc1)C(=O)O [Example A-65]
18 | 0.000967 | O=C(O)C[C@@H](NS(=O)(=O)c1ccc(-c2cc(-c3ccc(Cl)c(F)c3)on2)cc1)C(=O)O [Example C-117]
19 | 0.000781 | CCC(C)[C@H](NS(=O)(=O)c1ccc(-c2cc(-c3ccc(F)cc3)on2)cc1)C(=O)O (stereo partly drawn) [Example C-106]
20 | 0.000889 | C[C@H](NS(=O)(=O)c1ccc(-c2cc(-c3ccc(OC(F)(F)F)cc3)no2)cc1)C(=O)O [Example A-6]
21 | 0.00086 | CC(C)[C@H](NS(=O)(=O)c1ccc(-c2cc(-c3ccc(Cl)cc3)no2)cc1)C(=O)O [Example A-23]
22 | 0.000177 | CCC(C)[C@H](NS(=O)(=O)c1ccc(-c2cc(-c3ccc(Br)cc3)on2)cc1)C(=O)O (stereo partly drawn) [Example C-103]
23 | 0.000708 | COc1ccc(-c2cc(-c3ccc(S(=O)(=O)N[C@H](C(=O)O)C(C)C)cc3)on2)cc1F [Example A-39]
24 | 0.000343 | Cc1ccc(-c2cc(-c3ccc(S(=O)(=O)N[C@@H](CC(C)C)C(=O)O)cc3)no2)cc1 [Example C-54]
25 | 0.000251 | CC(C)C[C@H](NS(=O)(=O)c1ccc(-c2cc(-c3ccc(C(F)(F)F)cc3)on2)cc1)C(=O)O [Example C-73]
26 | 0.000238 | Cc1ccc(-c2cc(-c3ccc(S(=O)(=O)N[C@H](C(=O)O)C(C)C)cc3)no2)cc1F [Example C-39]
27 | 0.000174 | CCC(C)[C@H](NS(=O)(=O)c1ccc(-c2cc(-c3ccc(C)c(F)c3)on2)cc1)C(=O)O (stereo partly drawn) [Example C-105]
28 | 0.00029 | CSc1ccc(-c2cc(-c3ccc(S(=O)(=O)N[C@@H](CC(C)C)C(=O)O)cc3)no2)cc1 [Example C-62]
29 | 0.000723 | CC(C)[C@@H](NS(=O)(=O)c1ccc(-c2cc(-c3ccc(C(F)(F)F)cc3)no2)cc1)C(=O)O [Example A-20]
30 | 0.000233 | CC(C)C[C@H](NS(=O)(=O)c1ccc(-c2cc(-c3ccc(Cl)c(F)c3)on2)cc1)C(=O)O [Example C-82]
31 | 0.000289 | CCc1ccc(-c2cc(-c3ccc(S(=O)(=O)N[C@@H](CC(C)C)C(=O)O)cc3)no2)cc1 [Example C-56]

Row | IC50 [µM] | SMILES
32 | 0.000518 | CC(C)[C@H](NS(=O)(=O)c1ccc(-c2cc(-c3ccc(Br)cc3)no2)cc1)C(=O)O [Example A-25]
33 | 0.000899 | Cc1ccc(-c2cc(-c3ccc(S(=O)(=O)N[C@@H](C)C(=O)O)cc3)no2)cc1 [Example C-2]
34 | 0.000676 | CCc1ccc(-c2cc(-c3ccc(S(=O)(=O)N[C@@H](CC(C)C)C(=O)O)cc3)no2)s1 [Example C-77]
35 | 0.000592 | CCC(C)[C@H](NS(=O)(=O)c1ccc(-c2cc(-c3ccc(C(F)(F)F)cc3)no2)cc1)C(=O)O (stereo partly drawn) [Example A-102]
36 | 0.000245 | Cc1ccc(-c2cc(-c3ccc(S(=O)(=O)N[C@@H](CC(C)C)C(=O)O)cc3)no2)cc1F [Example C-84]
37 | 0.000908 | COc1ccc(-c2cc(-c3ccc(S(=O)(=O)N[C@@H](C(=O)O)C(C)C)cc3)on2)cc1F [Example A-38]
38 | 0.00069 | CC(C)C[C@H](NS(=O)(=O)c1ccc(-c2cc(-c3ccc(F)c(F)c3)no2)cc1)C(=O)O [Example A-84]
39 | 0.000257 | CCC(C)[C@H](NS(=O)(=O)c1ccc(-c2cc(-c3ccc(Cl)cc3)on2)cc1)C(=O)O (stereo partly drawn) [Example C-107]
40 | 0.000877 | Cc1ccc(-c2cc(-c3ccc(S(=O)(=O)N[C@H](Cc4ccccc4)C(=O)O)cc3)no2)cc1 [Example C-122]
41 | 0.000754 | CC(C)[C@H](NS(=O)(=O)c1ccc(-c2cc(-c3ccc(F)c(F)c3)on2)cc1)C(=O)O [Example C-50]
42 | 0.000547 | CCc1ccc(-c2cc(-c3ccc(S(=O)(=O)N[C@@H](C)C(=O)O)cc3)no2)cc1 [Example C-3]
43 | 0.000336 | CC(C)[C@H](NS(=O)(=O)c1ccc(-c2cc(-c3ccc(Cl)cc3)on2)cc1)C(=O)O [Example C-21]
44 | 0.000245 | Cc1ccc(-c2cc(-c3ccc(S(=O)(=O)N[C@@H](C(=O)O)C(C)C)cc3)no2)cc1F [Example C-38]
45 | 0.000205 | CC(C)[C@H](NS(=O)(=O)c1ccc(-c2cc(-c3ccc(Br)cc3)on2)cc1)C(=O)O [Example C-23]
46 | 0.000256 | CCC(C)[C@H](NS(=O)(=O)c1ccc(-c2cc(-c3ccc(C)cc3)on2)cc1)C(=O)O (stereo partly drawn) [Example C-94]
47 | 0.000584 | CC(C)C[C@H](NS(=O)(=O)c1ccc(-c2cc(-c3ccc(C(F)(F)F)cc3)no2)cc1)C(=O)O [Example A-63]
48 | 0.00076 | CCc1ccc(-c2cc(-c3ccc(S(=O)(=O)N[C@H](Cc4ccccc4)C(=O)O)cc3)no2)cc1 [Example C-123]
49 | 0.000357 | CC(C)C[C@H](NS(=O)(=O)c1ccc(-c2cc(-c3ccc(Cl)c(F)c3)no2)cc1)C(=O)O [Example A-81]
50 | 0.000559 | Cc1ccc(-c2cc(-c3ccc(S(=O)(=O)N[C@@H](C(=O)O)C(C)C)cc3)no2)cc1 [Example C-8]
51 | 0.000409 | Cc1ccc(-c2cc(-c3ccc(S(=O)(=O)N[C@H](C(=O)O)C(C)C)cc3)no2)cc1 [Example C-9]
52 | 0.00047 | CC(C)[C@H](NS(=O)(=O)c1ccc(-c2cc(-c3ccc(Cl)c(F)c3)no2)cc1)C(=O)O [Example A-41]
53 | 0.000203 | CC(C)C[C@H](NS(=O)(=O)c1ccc(-c2cc(-c3ccc(OC(F)(F)F)cc3)on2)cc1)C(=O)O [Example C-71]
54 | 0.000218 | CC(C)C[C@H](NS(=O)(=O)c1ccc(-c2cc(-c3ccc(Br)cc3)on2)cc1)C(=O)O [Example C-66]
55 | 0.000951 | Cc1ccc(-c2cc(-c3ccc(S(=O)(=O)N[C@@H](C(=O)O)C(C)(C)C)cc3)no2)cc1 [Example C-109]
56 | 0.000295 | CC(C)C[C@H](NS(=O)(=O)c1ccc(-c2cc(-c3ccc(Cl)cc3)on2)cc1)C(=O)O [Example C-68]
57 | 0.000379 | CCC(C)[C@H](NS(=O)(=O)c1ccc(-c2cc(-c3ccc(Cl)c(F)c3)no2)cc1)C(=O)O (stereo partly drawn) [Example A-104]
